The values that follow come from ChEMBL document CHEMBL3108695, “Inhibitors of factor d may provide a treatment for age-related macular degeneration” (ACS Med Chem Lett, 2014).

As a reminder, the IC50 is the concentration at which inhibition is half-maximal.

The target of the assay is Complement factor D (Homo sapiens, UniProt P00746). Description: Inhibition of recombinant human factor D expressed in Escherichia coli using Z-Lys-thiobenzyl and 2,4-dinitrobenzenesulfonyl-fluoresceine as substrate preincubated for 1 hr followed by substrate addition by spectrofluorimetric analysis.
Chain of Complement factor D (P00746 whole entry): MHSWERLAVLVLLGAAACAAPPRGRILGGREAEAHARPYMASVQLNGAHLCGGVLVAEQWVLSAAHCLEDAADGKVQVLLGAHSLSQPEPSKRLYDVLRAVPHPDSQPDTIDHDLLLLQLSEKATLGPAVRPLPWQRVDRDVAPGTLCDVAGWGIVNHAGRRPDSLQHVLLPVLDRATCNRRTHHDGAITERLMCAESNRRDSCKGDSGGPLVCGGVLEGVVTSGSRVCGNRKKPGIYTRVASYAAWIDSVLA

With `NC(=O)c1nn(CC(=O)N2[C@@H]3C[C@@H]3C[C@H]2C(=O)Nc2cccc(Br)n2)c2cnc(CF)cc12`, the half-inhibitory concentration (IC50) is 2 nM.
